The values that follow are results of earlier work, collected in patent publication US20140335365A1, “GYPSUM BOARD HAVING MOLD RESISTANCE” (priority 2007, published 2014).

Read-outs that look alike come from different tables or passages of the source.

For the compound `Cc1ccc(S(=O)(=O)C(I)I)cc1` [diiodomethyl-p-tolylsulfone, 1-[(diiodomethyl)sulfonyl]-4-methylbenzene], the water solubility was 100 ppm.

As for `CCCCNC(=O)OCC#CI` [IPBC, 3-iodo-2-propyl butyl carbamate], the water solubility is given as 156 ppm. For the setting “Table 1, anti-mold agents used”, the “water solubility” value is 156 ppm.

Take `[O-][n+]1ccccc1[S][Na]` [SPT, (2-pyridinethiol-1-oxide) sodium]: the water solubility is recorded as 530000 ppm. Further, for the setting “Table 1, anti-mold agents used”, the “water solubility” value is recorded as 530000 ppm.

In the case of `c1ccc2[nH]c(-c3cscn3)nc2c1` [TBZ, 2-(4-thiazolyl)-benzimidazole], the water solubility is 30 ppm. Further, the “water solubility” value (Table 1, anti-mold agents used) is reported as 30 ppm.

With `O=C1c2ccccc2C(=O)N1SC(F)(Cl)Cl` [fluor-folpet, N-(fluorodichloromethylthio)-phthalimide], the water solubility result is “insoluble”.

As for `N#CSCSc1nc2ccccc2s1` [TCMTB, 2-(4-thiocyanomethylthio)benzothiazole], the water solubility is 330 ppm.

Turning to `Oc1cc(Cl)ccc1Oc1ccc(Cl)cc1Cl` [triclosan, 2,4,4′-trichloro-2′-hydroxydiphenylether], the water solubility was 10 ppm.

Turning to `[O-]n1ccccc1=S.[O-]n1ccccc1=S.[Zn+2]` [ZPT, Bis[1-hydroxy-2(1H)pyridinethionato]zinc], the water solubility is listed as 15 ppm.
